In ChEMBL document CHEMBL6096719, “Kidney Targeting Smart Antibiotic Discovery: Multimechanism Pleuromutilins for Pyelonephritis Therapy” (J Med Chem, 2025):
Converted amounts (≈) assume the structure as drawn.

Key:
[1] = Aqueous solubility of the compound incubated for 12 hrs by UV-Vis spectrophotometry; assay type: physicochemical; conditions: buffer
Staphylococcus aureus [2] = assay: Antibacterial activity against methicillin-resistant Staphylococcus aureus ATCC 33591 assessed as inhibition of bacterial growth incubated for 24 hrs by broth microdilution method; assay type: functional
Staphylococcus aureus [3] = assay: Antibacterial activity against methicillin-resistant Staphylococcus aureus ATCC 43300 assessed as inhibition of bacterial growth incubated for 24 hrs by broth microdilution method; assay type: functional
Staphylococcus aureus [4] = assay: Antibacterial activity against Staphylococcus aureus ATCC 29213 assessed as inhibition of bacterial growth incubated for 24 hrs by broth microdilution method; assay type: functional
[5] = test system: Staphylococcus epidermidis; assay: Antibacterial activity against methicillin-resistant Staphylococcus epidermidis ATCC 51625 assessed as inhibition of bacterial growth incubated for 24 hrs by broth microdilution method; assay type: functional
Acinetobacter baumannii [6] = assay: Antibacterial activity against Acinetobacter baumannii ATCC 19606 assessed as inhibition of bacterial growth incubated for 24 hrs by broth microdilution method; assay type: functional
Salmonella enterica = assay: Antibacterial activity against Salmonella enterica ATCC 14028 assessed as inhibition of bacterial growth incubated for 24 hrs by broth microdilution method; assay type: functional
Escherichia coli [7] = assay: Antibacterial activity against Escherichia coli ATCC 25922 assessed as inhibition of bacterial growth incubated for 24 hrs by broth microdilution method; assay type: functional
Escherichia coli [8] = assay: Antibacterial activity against Escherichia coli CMCC 44103 assessed as inhibition of bacterial growth incubated for 24 hrs by broth microdilution method; assay type: functional
Staphylococcus aureus [9] = assay: Antibacterial activity against methicillin-resistant Staphylococcus aureus 171 assessed as inhibition of bacterial growth incubated for 24 hrs by broth microdilution method; assay type: functional
Staphylococcus aureus [10] = assay: Antibacterial activity against methicillin-resistant Staphylococcus aureus 575 assessed as inhibition of bacterial growth incubated for 24 hrs by broth microdilution method; assay type: functional
Staphylococcus aureus [11] = assay: Antibacterial activity against methicillin-resistant Staphylococcus aureus 206 assessed as inhibition of bacterial growth incubated for 24 hrs by broth microdilution method; assay type: functional
Staphylococcus aureus [12] = assay: Antibacterial activity against methicillin-resistant Staphylococcus aureus 222 assessed as inhibition of bacterial growth incubated for 24 hrs by broth microdilution method; assay type: functional
Staphylococcus aureus [13] = assay: Antibacterial activity against methicillin-resistant Staphylococcus aureus 596 assessed as inhibition of bacterial growth incubated for 24 hrs by broth microdilution method; assay type: functional
Enterococcus = assay: Antibacterial activity against vancomycin-resistant Enterococcus 80 assessed as inhibition of bacterial growth incubated for 24 hrs by broth microdilution method; assay type: functional
Pseudomonas aeruginosa = assay: Antibacterial activity against multidrug-resistant Pseudomonas aeruginosa 126 assessed as inhibition of bacterial growth incubated for 24 hrs by broth microdilution method; assay type: functional
Klebsiella pneumoniae = assay: Antibacterial activity against multidrug-resistant Klebsiella pneumoniae 893 assessed as inhibition of bacterial growth incubated for 24 hrs by broth microdilution method; assay type: functional
Acinetobacter baumannii [14] = assay: Antibacterial activity against carbapenem-resistant Acinetobacter baumannii 882 assessed as inhibition of bacterial growth incubated for 24 hrs by broth microdilution method; assay type: functional
[15] = Cytotoxicity against human HepG2 cells assessed as reduction in cell viability incubated for 24 hrs by CCK8 assay; assay type: toxicity, cell-based
[16] = Cytotoxicity against human HEK293 cells assessed as reduction in cell viability incubated for 24 hrs by CCK8 assay; assay type: toxicity, cell-based
[17] = Cytotoxicity against human A549 cells assessed as reduction in cell viability incubated for 24 hrs by CCK8 assay; assay type: toxicity, cell-based

C=C[C@]1(C)C[C@@H](OC(=O)CSc2nc3cc[n+](Cc4ccc(Cl)cc4)cc3s2)[C@]2(C)[C@H](C)CC[C@]3(CCC(=O)[C@H]32)[C@@H](C)[C@@H]1O.[Br-]
solubility at 12 h [1]: 449 µg/mL

C=C[C@]1(C)C[C@@H](OC(=O)CSc2nc3cc[n+](Cc4cc(OC)cc(OC)c4)cc3s2)[C@]2(C)[C@H](C)CC[C@]3(CCC(=O)[C@H]32)[C@@H](C)[C@@H]1O.[Br-]
solubility at 12 h [1]: 94 µg/mL

C=C[C@]1(C)C[C@@H](OC(=O)CSc2nc3cc[n+](Cc4ccc(C(C)(C)C)cc4)cc3[nH]2)[C@]2(C)[C@H](C)CC[C@]3(CCC(=O)[C@H]32)[C@@H](C)[C@@H]1O.[Br-]
solubility at 12 h [1]: 486 µg/mL

C=C[C@]1(C)C[C@@H](OC(=O)CSc2nc3cc[n+](Cc4cc(F)c(F)cc4F)cc3[nH]2)[C@]2(C)[C@H](C)CC[C@]3(CCC(=O)[C@H]32)[C@@H](C)[C@@H]1O.[Br-]
solubility at 12 h [1]: 539 µg/mL

C=C[C@]1(C)C[C@@H](OC(=O)CSCCN(CC)CC)[C@]2(C)[C@H](C)CC[C@]3(CCC(=O)[C@H]32)[C@@H](C)[C@@H]1O [TIAMULIN]
solubility at 12 h [1]: 128 µg/mL (≈ 259 µM)

C=C[C@]1(C)C[C@@H](OC(=O)CSc2nc3cc[n+](Cc4ccc(C(F)(F)F)cc4)cc3s2)[C@]2(C)[C@H](C)CC[C@]3(CCC(=O)[C@H]32)[C@@H](C)[C@@H]1O.[Br-]
solubility at 12 h [1]: 246 µg/mL

C=C[C@]1(C)C[C@@H](OC(=O)CSc2nc3cc[n+](Cc4cc(C)cc(C)c4)cc3[nH]2)[C@]2(C)[C@H](C)CC[C@]3(CCC(=O)[C@H]32)[C@@H](C)[C@@H]1O.[Br-]
solubility at 12 h [1]: 414 µg/mL

C=C[C@]1(C)C[C@@H](OC(=O)CSc2nc3cc[n+](Cc4ccc(C#N)cc4)cc3s2)[C@]2(C)[C@H](C)CC[C@]3(CCC(=O)[C@H]32)[C@@H](C)[C@@H]1O.[Br-]
solubility at 12 h [1]: 451 µg/mL | MIC (Staphylococcus aureus [2]): < 2 µg/mL | MIC (Staphylococcus aureus [3]): < 2 µg/mL | MIC (Staphylococcus aureus [4]): < 2 µg/mL | MIC [5]: < 2 µg/mL | MIC (Acinetobacter baumannii [6]): < 2 µg/mL | MIC (Salmonella enterica): < 2 µg/mL | MIC (Escherichia coli [7]): < 2 µg/mL | MIC (Escherichia coli [8]): < 2 µg/mL | MIC (Staphylococcus aureus [9]): 16 µg/mL | MIC (Staphylococcus aureus [10]): 32 µg/mL | MIC (Staphylococcus aureus [11]): 64 µg/mL | MIC (Staphylococcus aureus [12]): 16 µg/mL | MIC (Staphylococcus aureus [13]): 8 µg/mL | MIC (Enterococcus): 16 µg/mL | MIC (Pseudomonas aeruginosa): 32 µg/mL | MIC (Klebsiella pneumoniae): 16 µg/mL | MIC (Acinetobacter baumannii [14]): 64 µg/mL | CC50 at 24 h [15]: 78.5 µM | CC50 at 24 h [16]: 18.2 µM | CC50 at 24 h [17]: > 100 µM

C=C[C@]1(C)C[C@@H](OC(=O)CSc2nc3cc[n+](Cc4ccc(-c5ccccc5)cc4)cc3[nH]2)[C@]2(C)[C@H](C)CC[C@]3(CCC(=O)[C@H]32)[C@@H](C)[C@@H]1O.[Br-]
solubility at 12 h [1]: 367 µg/mL

Br.C=C[C@]1(C)C[C@@H](OC(=O)CSc2nc3cc[n+](Cc4ccc([N+](=O)[O-])cc4)cc3[nH]2)[C@]2(C)[C@H](C)CC[C@]3(CCC(=O)[C@H]32)[C@@H](C)[C@@H]1O
solubility at 12 h [1]: 691 µg/mL

C=C[C@]1(C)C[C@@H](OC(=O)CSc2nc3cc[n+](Cc4ccc(C)cc4)cc3s2)[C@]2(C)[C@H](C)CC[C@]3(CCC(=O)[C@H]32)[C@@H](C)[C@@H]1O.[Br-]
solubility at 12 h [1]: 568 µg/mL | MIC (Staphylococcus aureus [9]): 8 µg/mL | MIC (Staphylococcus aureus [10]): 4 µg/mL | MIC (Staphylococcus aureus [11]): 2 µg/mL | MIC (Staphylococcus aureus [12]): 4 µg/mL | MIC (Staphylococcus aureus [13]): 8 µg/mL | MIC (Enterococcus): 8 µg/mL | MIC (Pseudomonas aeruginosa): 8 µg/mL | MIC (Klebsiella pneumoniae): 2 µg/mL | MIC (Acinetobacter baumannii [14]): 4 µg/mL | CC50 at 24 h [15]: 46.4 µM | CC50 at 24 h [16]: 82.1 µM | CC50 at 24 h [17]: > 100 µM

C=C[C@]1(C)C[C@@H](OC(=O)CSc2nc3cc[n+](Cc4ccc(F)cc4)cc3s2)[C@]2(C)[C@H](C)CC[C@]3(CCC(=O)[C@H]32)[C@@H](C)[C@@H]1O.[Br-]
solubility at 12 h [1]: 395 µg/mL

C=C[C@]1(C)C[C@@H](OC(=O)CSc2nc3cc[n+](Cc4ccc(Cl)cc4)cc3[nH]2)[C@]2(C)[C@H](C)CC[C@]3(CCC(=O)[C@H]32)[C@@H](C)[C@@H]1O.[Br-]
solubility at 12 h [1]: 419 µg/mL

C=C[C@]1(C)C[C@@H](OC(=O)CSc2nc3cc[n+](Cc4cc(F)ccc4C#N)cc3[nH]2)[C@]2(C)[C@H](C)CC[C@]3(CCC(=O)[C@H]32)[C@@H](C)[C@@H]1O.[Br-]
solubility at 12 h [1]: 91.8 µg/mL

C=C[C@]1(C)C[C@@H](OC(=O)CSc2nc3cc[n+](Cc4ccc(Br)cc4)cc3s2)[C@]2(C)[C@H](C)CC[C@]3(CCC(=O)[C@H]32)[C@@H](C)[C@@H]1O.[Br-]
solubility at 12 h [1]: 344 µg/mL

C=C[C@]1(C)C[C@@H](OC(=O)CSc2nc3cc[n+](Cc4ccc(F)cc4)cc3[nH]2)[C@]2(C)[C@H](C)CC[C@]3(CCC(=O)[C@H]32)[C@@H](C)[C@@H]1O.[Br-]
solubility at 12 h [1]: 159 µg/mL

C=C[C@]1(C)C[C@@H](OC(=O)CSc2nc3cc[n+](Cc4cc(F)c(F)cc4F)cc3s2)[C@]2(C)[C@H](C)CC[C@]3(CCC(=O)[C@H]32)[C@@H](C)[C@@H]1O.[Br-]
solubility at 12 h [1]: 485 µg/mL

C=C[C@]1(C)C[C@@H](OC(=O)CS[C@@H]2C[C@H]3CC[C@@H](C2)N3C)[C@]2(C)[C@H](C)CC[C@]3(CCC(=O)[C@H]32)[C@@H](C)[C@@H]1O [RETAPAMULIN]
MIC (Staphylococcus aureus [9]): 128 µg/mL (≈ 247 µM) | MIC (Staphylococcus aureus [10]): 32 µg/mL (≈ 61.8 µM) | MIC (Staphylococcus aureus [11]): 64 µg/mL (≈ 124 µM) | MIC (Staphylococcus aureus [12]): 128 µg/mL (≈ 247 µM) | MIC (Staphylococcus aureus [13]): 32 µg/mL (≈ 61.8 µM) | MIC (Enterococcus): > 128 µg/mL | MIC (Pseudomonas aeruginosa): 64 µg/mL (≈ 124 µM) | MIC (Klebsiella pneumoniae): 128 µg/mL (≈ 247 µM) | MIC (Acinetobacter baumannii [14]): 64 µg/mL (≈ 124 µM) | CC50 at 24 h [15]: 61.1 µM | CC50 at 24 h [16]: 57.5 µM | CC50 at 24 h [17]: 71.5 µM

C=C[C@]1(C)C[C@@H](OC(=O)CSc2nc3cc[n+](Cc4cc(OC)cc(OC)c4)cc3[nH]2)[C@]2(C)[C@H](C)CC[C@]3(CCC(=O)[C@H]32)[C@@H](C)[C@@H]1O.[Br-]
solubility at 12 h [1]: 176 µg/mL

C=C[C@]1(C)C[C@@H](OC(=O)CSc2nc3cc[n+](Cc4ccc(-c5ccccc5)cc4)cc3s2)[C@]2(C)[C@H](C)CC[C@]3(CCC(=O)[C@H]32)[C@@H](C)[C@@H]1O.[Br-]
solubility at 12 h [1]: 391 µg/mL

C=C[C@]1(C)C[C@@H](OC(=O)CSc2nc3cc[n+](Cc4cc(F)ccc4C#N)cc3s2)[C@]2(C)[C@H](C)CC[C@]3(CCC(=O)[C@H]32)[C@@H](C)[C@@H]1O.[Br-]
solubility at 12 h [1]: 168 µg/mL

C=C[C@]1(C)C[C@@H](OC(=O)CSc2nc3cc[n+](Cc4ccc(C(F)(F)F)cc4)cc3[nH]2)[C@]2(C)[C@H](C)CC[C@]3(CCC(=O)[C@H]32)[C@@H](C)[C@@H]1O.[Br-]
solubility at 12 h [1]: 337 µg/mL

C=C[C@]1(C)C[C@@H](OC(=O)CSc2nc3cc[n+](Cc4ccc(OC)cc4)cc3s2)[C@]2(C)[C@H](C)CC[C@]3(CCC(=O)[C@H]32)[C@@H](C)[C@@H]1O.[Br-]
solubility at 12 h [1]: 177 µg/mL

C=C[C@]1(C)C[C@@H](OC(=O)CSc2nc3cc[n+](Cc4ccc(C(C)(C)C)cc4)cc3s2)[C@]2(C)[C@H](C)CC[C@]3(CCC(=O)[C@H]32)[C@@H](C)[C@@H]1O.[Br-]
solubility at 12 h [1]: 453 µg/mL

C=C[C@]1(C)C[C@@H](OC(=O)CSc2nc3cc[n+](Cc4ccc(Br)cc4)cc3[nH]2)[C@]2(C)[C@H](C)CC[C@]3(CCC(=O)[C@H]32)[C@@H](C)[C@@H]1O.[Br-]
solubility at 12 h [1]: 432 µg/mL

C=C[C@]1(C)C[C@@H](OC(=O)CSc2nc3cc[n+](Cc4ccc(OC)cc4)cc3[nH]2)[C@]2(C)[C@H](C)CC[C@]3(CCC(=O)[C@H]32)[C@@H](C)[C@@H]1O.[Br-]
solubility at 12 h [1]: 150 µg/mL

Br.C=C[C@]1(C)C[C@@H](OC(=O)CSc2nc3cc[n+](Cc4ccc([N+](=O)[O-])cc4)cc3s2)[C@]2(C)[C@H](C)CC[C@]3(CCC(=O)[C@H]32)[C@@H](C)[C@@H]1O
solubility at 12 h [1]: 648 µg/mL

C=C[C@]1(C)C[C@@H](OC(=O)CSc2nc3cc[n+](Cc4cc(C)cc(C)c4)cc3s2)[C@]2(C)[C@H](C)CC[C@]3(CCC(=O)[C@H]32)[C@@H](C)[C@@H]1O.[Br-]
solubility at 12 h [1]: 392 µg/mL
